The results in this text go back to patent publication US20140171448A1, “USE OF NICOTINIC ACETYLCHOLINE RECEPTOR ALPHA 7 ACTIVATORS” (NOVARTIS AG, priority 2011, published 2014).

The term EC50 denotes the midpoint of the concentration-response curve. Low values mean higher potency in that assay, high ones lower potency in that assay.

Where only a bound is given, the exact number is not on record here.

One series has as its system parkinsonian primates. Put plainly: Antidyskinetic effect in parkinsonian primates (MPTP, levodopa-induced dyskinesia). The class given is in vivo, cynomolgus monkeys (Macaca fascicularis). Conditions: with levodopa. The protocol: Female ovariectomized cynomolgus monkeys (Macaca fascicularis) are used in the assessment. The animals can be rendered parkinsonian by continuous infusion of 1-methyl-4-phenyl-1,2,3,6-tetrahydropyridine (MPTP) until they develop a stable parkinsonian syndrome. After recuperation, animals are treated daily with levodopa until clear and reproducible dyskinesias are developed.
Monkeys are observed through a one-way screen window in their home cage. They are observed and scored repeatedly at baseline and after a standard s.c. dose of levodopa. Locomotor activity is assessed and followed with an electronic monitoring system. Antiparkinsonian responses are evaluated by measuring the locomotor activity and a Parkinson disability scale (see Hadj Tahar A et al, Clin Neuropharmacol 2000; 23:195-202; and Samadi P et al, Neuropharmacology 2003; 45:954-963). Dyskinesias are closely monitored and scored according to a dyskinesia rating scale (also described in Hadj Tahar A et al; and Samadi P et al) every 15 minutes until the end of the effect. The doses of levodopa are chosen to induce motor activation and reproducible dyskinesia but no excessive agitation.
Monkeys are observed for at least two hours following an oral administration of vehicle. On a subsequent day, the dose of levodopa selected is tested once. The animals are observed (with measures of parkinsonian and dyskinetic scores) for the entire duration of the levodopa effect and are also monitored for locomotor activity. This provides vehicle control values as well as levodopa antiparkinsonian and dyskinesia response data for comparison with combinations of a α7-nAChR agonist/positive allosteric modulator and levodopa. The monkeys are then tested with a α7-nAChR agonist/positive allosteric modulator in combination with a fixed dose of levodopa. A suspension for oral administration of the α7-nAChR agonist/positive allosteric modulator is administered before levodopa. After each dose, the animals are observed (with measures of parkinsonian and dyskinetic scores) for the entire duration of effect and monitored for locomotor activity or any change in behavior (e.g. circling, excitement, lethargy and sleepiness).
Using this protocol, compound A-1 at a dose of 20 mg/kg was tested. Results based on five monkeys (levodopa/benserazide doses: 22.5/50 mg; 65/50 mg; 30/50 mg; 35/50 mg; and 25/50 mg) are shown in FIGS. 1-4.

Series [1] is described as follows: Oral bioavailability and brain penetration in mice. The class given is in vivo. Conditions: 30 μmol/kg p.o. As to the method:
Compounds were orally (30 μmol/kg) administered. Male mice (30-35g, OF1/ICstrain) were sacrificed at indicated time points after oral administration. Trunk-blood was collected in EDTA-containing tubes and the brain was removed and immediately frozen on dry ice.
To 100 μl plasma 10 μl internal standard (1.0 pmol of a compound with solubility and ionization properties similar to test compounds) was added and extracted three times with 500 μl dichloromethane. The combined extracts were then dried under a stream of nitrogen and re-dissolved in 100 μl acetonitrile/water (70% acetonitrile). Brains were weighed and homogenized in water (1:5 w/v). Two 100 μl aliquots of each homogenate+10 μl of internal standard (same standard as used for the plasma samples) were extracted three times with 500 μl dichloromethane and further processed as the plasma samples. Samples were separated on Beckmann high-performance liquid chromatography equipment system with an autosampler (Gilson 233XL).
The limit of detection (LOD), defined as the lowest concentration of the extracted standard sample with a signal to noise ratio of ˜3.

In series [2] the target is T1, human neuronal nAChR α4β2 (Homo sapiens, UniProt P17787+P43681).
T1 construct: expressed in transfected cells; host or cells: human epithelial cell line (named a human embryonic kidney cell line)
T1 sequence (P43681 29-627 limits assumed): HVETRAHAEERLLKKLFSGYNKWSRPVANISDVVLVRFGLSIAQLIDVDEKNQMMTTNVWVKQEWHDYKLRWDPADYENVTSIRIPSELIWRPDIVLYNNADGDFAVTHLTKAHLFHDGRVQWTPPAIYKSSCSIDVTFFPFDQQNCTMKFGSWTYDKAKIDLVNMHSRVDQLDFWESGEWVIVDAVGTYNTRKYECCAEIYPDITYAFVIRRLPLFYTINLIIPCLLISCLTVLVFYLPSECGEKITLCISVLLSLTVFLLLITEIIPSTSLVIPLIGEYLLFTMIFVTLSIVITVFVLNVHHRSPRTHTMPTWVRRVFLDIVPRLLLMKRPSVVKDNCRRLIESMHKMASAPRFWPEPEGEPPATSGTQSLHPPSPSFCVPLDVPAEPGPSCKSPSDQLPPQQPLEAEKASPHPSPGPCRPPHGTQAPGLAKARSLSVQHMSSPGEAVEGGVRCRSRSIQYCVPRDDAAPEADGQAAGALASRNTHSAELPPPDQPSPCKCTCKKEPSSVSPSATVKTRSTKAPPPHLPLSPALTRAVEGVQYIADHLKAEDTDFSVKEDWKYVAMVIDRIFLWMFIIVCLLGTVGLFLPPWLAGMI
T1 sequence (P17787 26-502): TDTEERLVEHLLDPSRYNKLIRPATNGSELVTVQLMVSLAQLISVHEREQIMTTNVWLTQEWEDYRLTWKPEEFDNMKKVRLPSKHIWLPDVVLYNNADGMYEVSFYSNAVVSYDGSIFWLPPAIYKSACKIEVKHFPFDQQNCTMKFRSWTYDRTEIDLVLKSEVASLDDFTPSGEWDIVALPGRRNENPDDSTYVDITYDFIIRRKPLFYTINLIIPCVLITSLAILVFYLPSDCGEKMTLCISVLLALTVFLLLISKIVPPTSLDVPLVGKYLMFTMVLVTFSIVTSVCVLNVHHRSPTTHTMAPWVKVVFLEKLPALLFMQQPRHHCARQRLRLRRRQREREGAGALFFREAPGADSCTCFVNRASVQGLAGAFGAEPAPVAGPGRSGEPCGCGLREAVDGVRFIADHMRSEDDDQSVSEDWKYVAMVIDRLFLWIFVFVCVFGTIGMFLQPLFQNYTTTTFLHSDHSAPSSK
Put plainly: α4β2-nAChR functional assay in human epithelial cell line. The class given is cell-based. As to the method: To assess the activity of the compound of the invention on the human neuronal nAChR α4β2, a similar functional assay is carried out using a human epithelial cell line stably expressing the human α4β2 subtype (Michelmore et al., Naunyn-Schmiedeberg's Arch.

`C[C@H](OC(=O)N[C@@H]1CN2CCC1CC2)c1ccccc1F` [A-1, (S)-(1-aza-bicyclo[2.2.2]oct-3-yl)-carbamic acid (S)-1-(2-fluoro-phenyl)-ethyl ester]: in the series on parkinsonian primates, the “effect on antiparkinsonian activity of levodopa” value is on record as “does not lower the antiparkinsonian activity of levodopa”, the “effect on duration of the antiparkinsonian activity of levodopa” value is “significantly increases the duration of the antiparkinsonian activity seen for levodopa administration”, the “effect on levodopa-induced dyskinesia” value is recorded as “significantly reduces levodopa-induced dyskinesia” and the “effect on onset of action of levodopa” value was “does not delay the onset of action of levodopa”. In series [1] (4 hour), the “Brain (pmoles/g ± SD)” value was 101.6 ± 39.6 pmol/g. Moreover, in series [1] (male, OF1/IC, mouse, plasma, po, 0.5 hour, read-out: Plasma (pmoles/ml ± SD)), the concentration at 0.5 h is 635 ± 261 pmol/mL. Also, the concentration at 1 h in series [1] (male, OF1/IC, mouse, plasma, po, 1 hour, read-out: Plasma (pmoles/ml ± SD)) stood at 685 ± 340 pmol/mL. The concentration at 2 h in series [1] (male, OF1/IC, mouse, plasma, po, 2 hour, read-out: Plasma (pmoles/ml ± SD)) came out at 168 ± 91.3 pmol/mL. The concentration at 4 h in series [1] (male, OF1/IC, mouse, plasma, po, 4 hour, read-out: Plasma (pmoles/ml ± SD)) stood at 85 ± 54.3 pmol/mL. The concentration at 6 h in series [1] (male, OF1/IC, mouse, plasma, po, 6 hour, read-out: Plasma (pmoles/ml ± SD)) amounted to 29.5 ± 13.8 pmol/mL. Further, in series [1] (male, OF1/IC, mouse, plasma, po, 24 hour, read-out: Plasma (pmoles/ml ± SD)), the concentration at 24 h was determined as 3.8 ± 0.6 pmol/mL. The concentration for a half-maximal effect (EC50) in series [2] was more than 100 µM.
